Source: patent US10072017B2, “Compounds and methods for the treatment of cystic fibrosis” (Flatley Discovery Lab, LLC, priority 2015, dated 2018)

Molecular target: T1, CFTR (Homo sapiens, UniProt P13569, DEL508-508)
T1 construct: Primary CF airway epithelial cells were obtained from the UNC Cystic Fibrosis Tissue Procurement and Cell Culture Core; host or cells: primary CF airway epithelial cells
Experiment: Equivalent current assay in Primary CF airway epithelial cells (NAUC)
Format: cell-based
Details: 24 h, normalized to VX809 (3 μM) positive control; for Nauc @ 3 μM: 3 μM test compound; for Nauc @ 10 μM: 10 μM test compound
Protocol: Primary CF airway epithelial cells were obtained from the UNC Cystic Fibrosis Tissue Procurement and Cell Culture Core. The cells are grown at 37° C. in a Heracell 150i incubator using growth media (BEGM, Fischer). Cells were then transferred to differentiation media (ALI, UNC) for a minimum of 4 weeks on coated Costar snapwells. Two days before the Ussing assay the mucus on the apical surface of the cells was aspirated after incubating with 200 μL of differentiation Media for at least thirty (30) minutes. One day before the Ussing assay test compounds were added to the basolateral surface of the cells at various test concentrations dissolved in DMSO. Duplicate wells were prepared giving a n=3 or n=4 protocol.
Cells were treated for 24 hours with various combinations and concentrations of the test articles, reference standard (3 μM VX809, positive control). Compounds stock solutions were prepared in DMSO and diluted 1/1000 into ALI media to their final assay concentration. Cells were treated with combination solutions (2 mL of each dilution) and incubated at 37° C. for 24 h.
For the equivalent current assay, cells on four Transwell (24-well) plates were treated. Each Transwell plate was filled with 200 μl of HBS on the apical surface and 2 ml on the basolateral surface. Plates were placed horizontally in a heated mount at 37° C., and equilibrated for several minutes. Resting current was measured for 15 min and then blocked by the apical addition of 5 μM benzamil. After 20 min, 10 μM forskolin and 1 μM VX770 were added to both the apical and basolateral side to stimulate CFTR. An increase in chloride current is seen as an upward deflection of the trace. After another 30 min, CFTR-172 (a CFTR inhibitor, 20 μM) and/or bumetanide (20 uM) was added to block CFTR mediated chloride current.
The raw data, current vs. time for the Ussing chamber (sampling interval: 10 s) and voltage vs. time and resistance vs. time for the equivalent current assay (sampling interval: 5 minutes) were transferred to Excel (Microsoft Office Professional, version 14.0.7106.5003) for analysis. CFTR specific current was measured as the average amplitude of the increase in current elicited upon addition forskolin and ending upon addition of the CFTR channel specific blocker CFTR-172. This average is equivalent to the sum of the average forskolin activated and the average VX770-potentiated currents. The average current measured in vehicle (0.1% DMSO) treated cells, Iv, was subtracted from the current for the test article, ITA, or from the corrector reference standard VX809 (3 uM ISTD. For replicate measurements, the average vehicle subtracted response for the test article, was normalized to the average vehicle subtracted inhibitor response of the reference corrector VX809 (3 μM). INSC=(ITA−IV)(ave)/(ISTD−IV)(ave) (Equation 1)
A second endpoint, for the equivalent current assay, evaluated was NAUC, the normalized area under the curve (AUC) measuring the response after addition of forskolin and VX770 to the time point right before the addition of the CFTR inhibitor. The AUC is effectively the average response multiplied by the duration of the response. The AUC of the test article, AUCTA was then corrected by subtracting the average vehicle response, AUCV,ave over the same time range, and normalized as for the inhibitor-sensitive current to the difference of the corrector reference standard VX809 (3 μM VX809r,ave and the vehicle response: NAUCTA=[AUCTA−AUCV,ave]/[AUCVx809r,ave−AUCV,ave] (Equation 2).
The normalized value for DMSO is 0.0 and for VX-809 alone is 1.0. Combinations of compounds with VX-809 that give normalized values greater than 1.0 show activity in the combination assay. A value of 2 means the test compound doubles the effect to VX-809 alone.
Experiments were run with a minimum of n=4 replicates per concentration. […]

T1 sequence (P13569 with tags, fused parts or gaps DEL508-508): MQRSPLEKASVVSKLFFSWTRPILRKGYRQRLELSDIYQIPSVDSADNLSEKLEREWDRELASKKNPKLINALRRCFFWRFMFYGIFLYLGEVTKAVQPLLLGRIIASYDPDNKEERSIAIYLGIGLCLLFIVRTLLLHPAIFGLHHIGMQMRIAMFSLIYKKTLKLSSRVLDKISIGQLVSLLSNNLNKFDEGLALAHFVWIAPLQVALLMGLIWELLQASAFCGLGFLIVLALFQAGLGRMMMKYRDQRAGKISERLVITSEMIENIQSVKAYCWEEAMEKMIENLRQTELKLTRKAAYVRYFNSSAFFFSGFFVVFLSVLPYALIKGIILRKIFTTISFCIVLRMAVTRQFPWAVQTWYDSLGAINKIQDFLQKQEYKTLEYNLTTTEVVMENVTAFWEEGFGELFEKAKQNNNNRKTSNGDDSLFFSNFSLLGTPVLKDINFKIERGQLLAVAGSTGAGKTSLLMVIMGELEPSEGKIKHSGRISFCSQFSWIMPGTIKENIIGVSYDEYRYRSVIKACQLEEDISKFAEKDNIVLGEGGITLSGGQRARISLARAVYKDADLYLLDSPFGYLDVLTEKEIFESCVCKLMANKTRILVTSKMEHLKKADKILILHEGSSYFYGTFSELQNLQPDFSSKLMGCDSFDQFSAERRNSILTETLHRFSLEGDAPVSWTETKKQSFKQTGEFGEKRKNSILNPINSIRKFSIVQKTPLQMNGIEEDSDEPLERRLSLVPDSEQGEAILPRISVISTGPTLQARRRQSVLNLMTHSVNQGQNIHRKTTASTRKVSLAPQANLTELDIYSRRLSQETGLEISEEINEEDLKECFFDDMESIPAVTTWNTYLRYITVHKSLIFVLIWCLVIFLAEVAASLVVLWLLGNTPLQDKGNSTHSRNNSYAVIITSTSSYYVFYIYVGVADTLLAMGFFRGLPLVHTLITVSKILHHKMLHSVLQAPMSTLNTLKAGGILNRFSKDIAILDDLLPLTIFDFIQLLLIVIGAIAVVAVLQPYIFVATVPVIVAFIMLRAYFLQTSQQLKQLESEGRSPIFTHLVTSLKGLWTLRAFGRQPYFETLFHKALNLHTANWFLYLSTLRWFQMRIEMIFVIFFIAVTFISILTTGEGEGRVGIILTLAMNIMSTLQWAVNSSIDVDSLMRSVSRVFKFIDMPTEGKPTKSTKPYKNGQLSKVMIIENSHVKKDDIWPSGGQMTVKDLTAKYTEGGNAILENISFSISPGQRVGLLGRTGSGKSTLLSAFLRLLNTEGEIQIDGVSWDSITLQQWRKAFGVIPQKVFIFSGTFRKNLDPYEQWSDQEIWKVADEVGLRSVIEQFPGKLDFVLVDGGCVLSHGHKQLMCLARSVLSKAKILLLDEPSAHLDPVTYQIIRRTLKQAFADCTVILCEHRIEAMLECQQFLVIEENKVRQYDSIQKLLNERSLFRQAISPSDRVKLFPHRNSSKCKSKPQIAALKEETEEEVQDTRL

SMILES	Nauc @ 3 μM	Nauc @ 10 μM
COc1cc(Cl)cc(N2C(=O)C3C4C[C@H](Cl)CN4C4(C(=O)Nc5c(Cl)cc(Cl)cc54)C3C2=O)c1 (single isomer, unassigned) [Example 111]	+++ (NAUC “+++” refers to an observed NAUC >170% of positive control)	+++ (NAUC “+++” refers to an observed NAUC >170% of positive control)
COc1c(Cl)cc(N2C(=O)C3C4CCCN4C4(C(=O)Nc5c(Cl)cc(Cl)cc54)C3C2=O)cc1Cl (single isomer, unassigned) [Example 112]	+++ (NAUC “+++” refers to an observed NAUC >170% of positive control)	+++ (NAUC “+++” refers to an observed NAUC >170% of positive control)
COc1c(Cl)cc(N2C(=O)C3C4C[C@H](Cl)CN4C4(C(=O)Nc5c(Cl)cc(Cl)cc54)C3C2=O)cc1Cl (single isomer, unassigned) [Example 114]	+++ (NAUC “+++” refers to an observed NAUC >170% of positive control)	+++ (NAUC “+++” refers to an observed NAUC >170% of positive control)
COc1cc(Cl)cc(N2C(=O)C3C4C[C@H](O)CN4C4(C(=O)Nc5c(Cl)cc(Cl)cc54)C3C2=O)c1 (single isomer, unassigned) [Example 115]	+ (NAUC “+” refers to an observed NAUC <140% of positive control)	++ (NAUC “++” refers to an observed NAUC 170-140% of positive control)
O=C1C2C3CC(=C(F)F)CN3C3(C(=O)Nc4c(Cl)cc(Cl)cc43)C2C(=O)N1c1cc(Cl)cc(Cl)c1 (single isomer, unassigned) [Example 116]	+++ (NAUC “+++” refers to an observed NAUC >170% of positive control)	+++ (NAUC “+++” refers to an observed NAUC >170% of positive control)
COc1c(Cl)cc(N2C(=O)C3C4C[C@H](F)CN4C4(C(=O)Nc5c(Cl)cc(Cl)cc54)C3C2=O)cc1Cl (single isomer, unassigned) [Example 118]	++ (NAUC “++” refers to an observed NAUC 170-140% of positive control)	++ (NAUC “++” refers to an observed NAUC 170-140% of positive control)
CC1(C)CC2C3C(=O)N(c4cc(Cl)cc(Cl)c4)C(=O)C3C3(C(=O)Nc4c(Cl)cc(Cl)cc43)N2C1 (single isomer, unassigned) [Example 119]	+++ (NAUC “+++” refers to an observed NAUC >170% of positive control)	+++ (NAUC “+++” refers to an observed NAUC >170% of positive control)
CC1(C)CC2C3C(=O)N(c4cc(Cl)cc(Cl)c4)C(=O)C3C3(C(=O)Nc4c(Cl)cc(Cl)cc43)N2C1 (single isomer, unassigned) [Example 120]	+++ (NAUC “+++” refers to an observed NAUC >170% of positive control)	+ (NAUC “+” refers to an observed NAUC <140% of positive control)
COc1cc(Cl)cc(N2C(=O)C3C4CC(=C(F)F)CN4C4(C(=O)Nc5c(Cl)cc(Cl)cc54)C3C2=O)c1 (single isomer, unassigned) [Example 138]	+++ (NAUC “+++” refers to an observed NAUC >170% of positive control)	+ (NAUC “+” refers to an observed NAUC <140% of positive control)
COc1cc(Cl)cc(N2C(=O)C3C4CC(=C(F)F)CN4C4(C(=O)Nc5c(Cl)cc(Cl)cc54)C3C2=O)c1 (single isomer, unassigned) [Example 139]	++ (NAUC “++” refers to an observed NAUC 170-140% of positive control)	+ (NAUC “+” refers to an observed NAUC <140% of positive control)
COc1c(Cl)cc(N2C(=O)C3C4CC(C)(C)CN4C4(C(=O)Nc5c(Cl)cc(Cl)cc54)C3C2=O)cc1Cl (single isomer, unassigned) [Example 140]	+++ (NAUC “+++” refers to an observed NAUC >170% of positive control)	+++ (NAUC “+++” refers to an observed NAUC >170% of positive control)
COc1c(Cl)cc(N2C(=O)C3C4CC(C)(C)CN4C4(C(=O)Nc5c(Cl)cc(Cl)cc54)C3C2=O)cc1Cl (single isomer, unassigned) [Example 141]	+ (NAUC “+” refers to an observed NAUC <140% of positive control)	++ (NAUC “++” refers to an observed NAUC 170-140% of positive control)
C=C1CC2C3C(=O)N(c4cc(Cl)cc(Cl)c4)C(=O)C3C3(C(=O)Nc4c(Cl)cc(Cl)cc43)N2C1 (single isomer, unassigned) [Example 144]	+++ (NAUC “+++” refers to an observed NAUC >170% of positive control)	+++ (NAUC “+++” refers to an observed NAUC >170% of positive control)
C[C@@]1(F)CC2C3C(=O)N(c4cc(Cl)cc(Cl)c4)C(=O)C3C3(C(=O)Nc4c(Cl)cc(Cl)cc43)N2C1 (single isomer, unassigned) [Example 161]	+++ (NAUC “+++” refers to an observed NAUC >170% of positive control)	+++ (NAUC “+++” refers to an observed NAUC >170% of positive control)
COc1c(Cl)cc(N2C(=O)C3C4C[C@@](C)(F)CN4C4(C(=O)Nc5c(Cl)cc(Cl)cc54)C3C2=O)cc1Cl (single isomer, unassigned) [Example 162]	+ (NAUC “+” refers to an observed NAUC <140% of positive control)	++ (NAUC “++” refers to an observed NAUC 170-140% of positive control)
O=C1C2C3CC(F)(F)CN3C3(C(=O)Nc4c(Cl)cc(Cl)cc43)C2C(=O)N1c1cc(Cl)cc(Cl)c1 (single isomer, unassigned) [Example 179]	+++ (NAUC “+++” refers to an observed NAUC >170% of positive control)	+++ (NAUC “+++” refers to an observed NAUC >170% of positive control)
O=C1C2C3CC(F)(F)CN3C3(C(=O)Nc4c(Cl)cc(Cl)cc43)C2C(=O)N1c1cc(Cl)cc(Cl)c1 (single isomer, unassigned) [Example 180]	++ (NAUC “++” refers to an observed NAUC 170-140% of positive control)	+ (NAUC “+” refers to an observed NAUC <140% of positive control)
O=C1C2C3CC4(CC4)CN3C3(C(=O)Nc4c(Cl)cc(Cl)cc43)C2C(=O)N1c1cc(Cl)cc(Cl)c1 (single isomer, unassigned) [Example 191]	+++ (NAUC “+++” refers to an observed NAUC >170% of positive control)	+++ (NAUC “+++” refers to an observed NAUC >170% of positive control)
O=C1C2C3CC4(CC4)CN3C3(C(=O)Nc4c(Cl)cc(Cl)cc43)C2C(=O)N1c1cc(Cl)cc(Cl)c1 (single isomer, unassigned) [Example 192]	+ (NAUC “+” refers to an observed NAUC <140% of positive control)	++ (NAUC “++” refers to an observed NAUC 170-140% of positive control)
COc1c(Cl)cc(N2C(=O)C3C4CC5(CC5)CN4C4(C(=O)Nc5c(Cl)cc(Cl)cc54)C3C2=O)cc1Cl (single isomer, unassigned) [Example 197]	+++ (NAUC “+++” refers to an observed NAUC >170% of positive control)	+++ (NAUC “+++” refers to an observed NAUC >170% of positive control)
O=C1C2C3CC4(CC4)CN3C3(C(=O)Nc4c(Cl)cc(Cl)cc43)C2C(=O)N1c1cc(Cl)cc(Cl)n1 (single isomer, unassigned) [Example 218]	+++ (NAUC “+++” refers to an observed NAUC >170% of positive control)	+++ (NAUC “+++” refers to an observed NAUC >170% of positive control)
